In ChEMBL document CHEMBL1201862, “PubChem BioAssay data set” (2004):
Calls of active or inactive are those of the source. Rule as the data show it, for most assays here: actives have a measured IC50 and inactives only a lower limit.

Legend:
Format in all cases: functional
[1] = molecular target: T1, Sentrin-specific protease 6 (Homo sapiens, UniProt Q9GZR1);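 also: Luminescence-based dose-response confirmatory assay of SENP6 inhibition, following up an ultra-high-throughput screen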
T1 sequence (Q9GZR1 whole entry): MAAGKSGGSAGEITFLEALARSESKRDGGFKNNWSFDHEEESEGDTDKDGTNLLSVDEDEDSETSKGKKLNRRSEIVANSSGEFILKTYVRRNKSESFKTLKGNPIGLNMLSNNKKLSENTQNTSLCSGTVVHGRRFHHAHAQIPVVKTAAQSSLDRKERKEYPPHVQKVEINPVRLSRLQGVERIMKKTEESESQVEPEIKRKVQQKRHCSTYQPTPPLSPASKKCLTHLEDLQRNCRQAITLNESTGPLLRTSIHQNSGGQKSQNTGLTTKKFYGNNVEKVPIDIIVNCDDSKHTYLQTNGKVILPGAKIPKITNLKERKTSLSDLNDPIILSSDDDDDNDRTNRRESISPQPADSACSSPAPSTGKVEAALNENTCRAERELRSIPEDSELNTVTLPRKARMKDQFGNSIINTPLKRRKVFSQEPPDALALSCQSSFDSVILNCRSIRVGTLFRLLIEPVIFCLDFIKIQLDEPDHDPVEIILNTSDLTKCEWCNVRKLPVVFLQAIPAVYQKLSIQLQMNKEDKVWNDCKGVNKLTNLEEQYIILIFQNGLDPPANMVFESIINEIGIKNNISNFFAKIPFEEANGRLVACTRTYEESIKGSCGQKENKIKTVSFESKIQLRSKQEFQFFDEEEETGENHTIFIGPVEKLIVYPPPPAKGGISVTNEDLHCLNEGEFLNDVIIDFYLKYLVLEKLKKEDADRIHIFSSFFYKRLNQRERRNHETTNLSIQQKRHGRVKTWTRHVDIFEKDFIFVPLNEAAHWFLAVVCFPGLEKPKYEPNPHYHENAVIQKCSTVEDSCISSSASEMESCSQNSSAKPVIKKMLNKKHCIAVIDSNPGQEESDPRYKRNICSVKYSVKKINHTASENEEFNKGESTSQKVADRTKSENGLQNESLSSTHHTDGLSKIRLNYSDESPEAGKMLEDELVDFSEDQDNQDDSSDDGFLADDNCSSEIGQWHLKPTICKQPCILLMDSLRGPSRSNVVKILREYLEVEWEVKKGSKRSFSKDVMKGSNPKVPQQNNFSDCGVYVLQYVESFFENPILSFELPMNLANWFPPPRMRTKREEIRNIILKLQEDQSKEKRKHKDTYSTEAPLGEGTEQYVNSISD

Caspase-3 = molecular target: T2, Caspase-3 (Homo sapiens, UniProt P42574);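 also: Dose-response selectivity test against caspase-3 for candidate inhibitors of sentrin-specific proteases (SENPs)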
T2 sequence (P42574 whole entry): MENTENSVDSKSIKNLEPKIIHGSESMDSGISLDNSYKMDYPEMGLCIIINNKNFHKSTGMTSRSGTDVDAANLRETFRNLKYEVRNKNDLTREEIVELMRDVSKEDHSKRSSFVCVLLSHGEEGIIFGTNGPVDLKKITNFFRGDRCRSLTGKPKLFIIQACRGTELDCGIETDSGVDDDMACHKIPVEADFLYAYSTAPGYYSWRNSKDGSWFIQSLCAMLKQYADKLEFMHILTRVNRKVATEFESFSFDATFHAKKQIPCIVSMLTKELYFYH

Protein RecA = molecular target: T3, Protein RecA (Mycobacterium tuberculosis, UniProt P9WHJ3); test: Fluorescence Cell-Free Homogeneous Dose Retest to Identify Inhibitors of RecA-Intein Splicing Activity. [Related pubchem assays (depositor defined):AID2097, AID2223, AID489010, AID492950]
T3 sequence (P9WHJ3 whole entry): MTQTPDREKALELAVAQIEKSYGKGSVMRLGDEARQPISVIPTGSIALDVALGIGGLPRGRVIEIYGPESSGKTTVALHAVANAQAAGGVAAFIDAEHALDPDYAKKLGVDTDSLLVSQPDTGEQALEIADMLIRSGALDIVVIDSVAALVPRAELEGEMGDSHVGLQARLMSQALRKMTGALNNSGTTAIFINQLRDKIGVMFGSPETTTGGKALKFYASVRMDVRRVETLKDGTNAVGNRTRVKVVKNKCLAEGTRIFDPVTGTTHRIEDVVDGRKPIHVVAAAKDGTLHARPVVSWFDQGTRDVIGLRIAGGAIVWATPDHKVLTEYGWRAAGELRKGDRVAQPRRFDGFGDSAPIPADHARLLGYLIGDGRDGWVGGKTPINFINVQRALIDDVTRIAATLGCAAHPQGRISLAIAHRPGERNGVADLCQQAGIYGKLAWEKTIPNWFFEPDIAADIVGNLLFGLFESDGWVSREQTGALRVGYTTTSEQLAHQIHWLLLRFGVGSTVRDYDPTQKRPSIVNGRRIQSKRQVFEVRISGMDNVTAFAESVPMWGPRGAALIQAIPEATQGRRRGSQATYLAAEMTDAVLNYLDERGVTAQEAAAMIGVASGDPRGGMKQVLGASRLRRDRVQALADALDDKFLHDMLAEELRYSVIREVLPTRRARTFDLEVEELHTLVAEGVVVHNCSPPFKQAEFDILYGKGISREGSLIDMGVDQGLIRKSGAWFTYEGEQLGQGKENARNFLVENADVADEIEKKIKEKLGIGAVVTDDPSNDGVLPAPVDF

O=C1C=C(Nc2ccccc2C(=O)O)c2ccccc2C1=O
active: IC50 [1] 2 µM | IC50 (Caspase-3) 4.8 µM | EC50 (Protein RecA) 2.34 µM

O=C1C(=O)c2ccccc2C(O)=C1CCCCl
active: IC50 [1] 7.23 µM | IC50 (Caspase-3) 37.8 µM | EC50 (Protein RecA) 6.39 µM

COc1ccc(NC(=S)Nc2ccc3nsnc3c2)cc1
active: IC50 [1] 2.3 µM | IC50 (Caspase-3) 7.54 µM | EC50 (Protein RecA) 17.5 µM

CC(C)(C)c1cc[n+](C2=C([N-]S(=O)(=O)c3ccccc3)C(=O)c3ccccc3C2=O)cc1
active: IC50 [1] 8.45 µM | IC50 (Caspase-3) 76.7 µM | EC50 (Protein RecA) 9.39 µM
